Calls of active or inactive are those of the source. The calls are words filed in the database; no cut-off is given here.
How the values were obtained:
[1] = molecular target: Prostaglandin G/H synthase 1 (Homo sapiens) (UniProt P23219); test: Binding affinity to COX1 (unknown origin)
[2] = molecular target: T1, Prostaglandin G/H synthase 1 (Ovis aries) (UniProt P05979); test: Inhibition of Ovis aries (sheep) COX1 at 0.1 uM by colorimetric analysis
T1 sequence (whole entry): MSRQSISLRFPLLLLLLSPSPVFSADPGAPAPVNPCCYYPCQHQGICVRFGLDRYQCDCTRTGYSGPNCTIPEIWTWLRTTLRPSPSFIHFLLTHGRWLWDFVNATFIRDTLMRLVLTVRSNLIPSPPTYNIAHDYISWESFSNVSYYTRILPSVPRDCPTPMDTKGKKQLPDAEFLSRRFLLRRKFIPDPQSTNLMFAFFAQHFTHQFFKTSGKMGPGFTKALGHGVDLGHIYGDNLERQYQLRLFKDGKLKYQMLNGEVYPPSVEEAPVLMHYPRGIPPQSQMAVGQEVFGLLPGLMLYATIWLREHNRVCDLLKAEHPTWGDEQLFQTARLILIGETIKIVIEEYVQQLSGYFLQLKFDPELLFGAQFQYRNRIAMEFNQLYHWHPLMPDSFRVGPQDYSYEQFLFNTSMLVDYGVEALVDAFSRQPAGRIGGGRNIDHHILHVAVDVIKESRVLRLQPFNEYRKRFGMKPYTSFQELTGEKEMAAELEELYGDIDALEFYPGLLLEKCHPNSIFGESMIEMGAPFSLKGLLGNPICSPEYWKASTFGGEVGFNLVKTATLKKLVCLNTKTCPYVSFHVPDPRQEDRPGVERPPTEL

Rattus norvegicus [3] = test: Gastrointestinal toxicity in Rattus norvegicus Wistar (rat) assessed as induction of duodenum macroscopic damage at 20 mg/kg, po measured on day 8; format: organism-based; design: dose 20 mg/kg, route oral; conditions: in vivo
Rattus norvegicus [4] = test: Gastrointestinal toxicity in Rattus norvegicus Wistar (rat) assessed as induction of stomach macroscopic damage at 20 mg/kg, po measured on day 8; format: organism-based; design: dose 20 mg/kg, route oral; conditions: in vivo
Rattus norvegicus [5] = test: Anti-inflammatory activity in Rattus norvegicus Wistar (rat) assessed as decrease in cotton pellet-induced total weight of granuloma at 20 mg/kg, po measured on day 8; format: functional, organism-based; design: dose 20 mg/kg
Rattus norvegicus [6] = test: Anti-inflammatory activity in Rattus norvegicus Wistar (rat) assessed as decrease in cotton pellet-induced wet weight of granuloma at 20 mg/kg, po measured on day 8; format: functional, organism-based; design: dose 20 mg/kg
Rattus norvegicus [7] = test: Anti-inflammatory activity in Rattus norvegicus Wistar (rat) assessed as decrease in cotton pellet-induced dry weight of granuloma at 20 mg/kg, po measured on day 8; format: functional, organism-based; design: dose 20 mg/kg
Rattus norvegicus [8] = test: Anti-inflammatory activity in Rattus norvegicus Wistar (rat) assessed as decrease in cotton pellet-induced granuloma weight at 20 mg/kg, po measured on day 8; format: functional, organism-based; design: dose 20 mg/kg
[9] = molecular target: T2, Prostaglandin G/H synthase 2 (Homo sapiens) (UniProt P35354); test: Binding affinity to COX2 (unknown origin)
T2 sequence (whole entry): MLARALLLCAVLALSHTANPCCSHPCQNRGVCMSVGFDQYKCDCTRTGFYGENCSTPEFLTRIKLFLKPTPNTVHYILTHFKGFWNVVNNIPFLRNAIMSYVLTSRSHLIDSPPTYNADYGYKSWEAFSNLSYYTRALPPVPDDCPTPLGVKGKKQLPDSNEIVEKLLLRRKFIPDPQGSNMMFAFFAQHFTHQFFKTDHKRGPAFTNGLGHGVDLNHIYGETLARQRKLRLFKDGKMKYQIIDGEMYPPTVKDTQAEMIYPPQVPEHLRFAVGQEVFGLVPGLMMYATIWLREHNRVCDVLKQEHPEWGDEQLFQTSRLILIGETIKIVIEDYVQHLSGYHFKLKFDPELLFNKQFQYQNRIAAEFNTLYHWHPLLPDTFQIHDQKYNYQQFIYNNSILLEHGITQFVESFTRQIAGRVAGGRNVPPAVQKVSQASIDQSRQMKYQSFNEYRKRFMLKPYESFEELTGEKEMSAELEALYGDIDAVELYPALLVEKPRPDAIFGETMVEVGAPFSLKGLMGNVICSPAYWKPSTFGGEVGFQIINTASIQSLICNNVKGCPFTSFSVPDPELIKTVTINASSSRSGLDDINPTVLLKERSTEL

Chain of Prostaglandin G/H synthase 1 (Homo sapiens) (P23219 whole entry): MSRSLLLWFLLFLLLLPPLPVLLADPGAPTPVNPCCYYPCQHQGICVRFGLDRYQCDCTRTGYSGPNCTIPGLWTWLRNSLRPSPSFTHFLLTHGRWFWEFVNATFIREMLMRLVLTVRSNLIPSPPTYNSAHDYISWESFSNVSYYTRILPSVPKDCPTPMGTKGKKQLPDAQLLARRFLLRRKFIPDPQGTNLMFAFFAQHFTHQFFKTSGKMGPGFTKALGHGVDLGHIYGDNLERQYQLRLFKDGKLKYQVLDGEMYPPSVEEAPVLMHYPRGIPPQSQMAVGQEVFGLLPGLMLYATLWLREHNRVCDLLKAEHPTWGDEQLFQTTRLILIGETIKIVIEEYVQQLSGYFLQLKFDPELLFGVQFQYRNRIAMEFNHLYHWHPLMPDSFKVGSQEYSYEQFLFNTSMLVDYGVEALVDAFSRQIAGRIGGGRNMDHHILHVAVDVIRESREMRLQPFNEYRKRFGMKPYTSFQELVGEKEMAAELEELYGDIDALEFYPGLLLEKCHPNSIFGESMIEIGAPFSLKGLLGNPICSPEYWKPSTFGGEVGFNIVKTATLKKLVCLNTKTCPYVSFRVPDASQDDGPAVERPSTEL

Row | Activity [1] | Activity [9] | SMILES | Activity (Rattus norvegicus [3]) | Activity (Rattus norvegicus [4]) | further results
1 | Active | – | CC(C)N(c1nc2ccccn2c1[N+](=O)[O-])C(C)C | Non-toxic | Non-toxic | Activity (Rattus norvegicus [8]): inactive
2 | Active | – | CCCCN(CCCC)c1nc2ccccn2c1[N+](=O)[O-] | – | – | –
3 | Active | – | CC(C)Nc1nc2ccccn2c1[N+](=O)[O-] | – | – | –
4 | Active | Active | O=[N+]([O-])c1c(NCc2ccccc2)nc2ccccn12 | Non-toxic | Non-toxic | Activity (Rattus norvegicus [8]): inactive

The remaining lines, values behind:

Row | SMILES | Activity [1] | Activity [9] | Activity (Rattus norvegicus [3]) | Activity (Rattus norvegicus [4]) | further results
5 | C[C@H](Nc1nc2ccccn2c1[N+](=O)[O-])c1ccccc1 | Active | – | – | – | –
6 | O=[N+]([O-])c1c(NC2CC2)nc2ccccn12 | Active | – | Non-toxic | Non-toxic | inhibition [2]: 3.8%; Activity (Rattus norvegicus [5]): Active; Activity (Rattus norvegicus [6]): Active; Activity (Rattus norvegicus [7]): Active
7 | O=[N+]([O-])c1c(NC2CCCCC2)nc2ccccn12 | Active | Active | – | – | –
8 | CCCCNc1nc2ccccn2c1[N+](=O)[O-] | Active | – | – | – | –
9 | C[C@@H](Nc1nc2ccccn2c1[N+](=O)[O-])c1ccccc1 | Active | Active | – | – | –

From ChEMBL document CHEMBL3045608, “Docking simulations, synthesis, and anti-inflammatory activity evaluation of 2-(N-alkyl)amino-3-nitroimidazo[1,2-a]pyridines” (Med Chem Res, 2012)
